The subject of assay [1] is Lactuca sativa. The assay is described as follows: Growth promoting activity in Lactuca sativa (lettuce) assessed as increase in root length at 1 x 10^-4 M relative to control. The class given is functional, organism-based.
The test system of assay [2] is Oryza sativa. Nature of the assay: Growth promoting activity in Oryza sativa (rice) assessed as increase in root length at 1 x 10^-4 M relative to control. It counts as functional.
Assay [3] concerns Oryza sativa. Nature of the assay: Growth promoting activity in Oryza sativa (rice) assessed as increase in root length at 1 x 10^-5 M relative to control. The class given is functional.
Assay [4] concerns Oryza sativa. Nature of the assay: Growth promoting activity in Oryza sativa (rice) assessed as increase in shoot length at 1 x 10^-3 M relative to control. The class given is functional.
Assay [5] deals with Oryza sativa. Nature of the assay: Growth promoting activity in Oryza sativa (rice) assessed as increase in shoot length at 1 x 10^-4 M relative to control. The class given is functional.
The subject of assay [6] is Lactuca sativa. The assay is described as follows: Growth promoting activity in Lactuca sativa (lettuce) assessed as increase in root length at 1 x 10^-5 M relative to control. The class given is functional, organism-based.
For assay [7], the system named is Oryza sativa. Nature of the assay: Growth promoting activity in Oryza sativa (rice) assessed as increase in root length at 1 x 10^-6 M relative to control. The class given is functional.
Assay [8] deals with Oryza sativa. The assay is described as follows: Growth promoting activity in Oryza sativa (rice) assessed as increase in shoot length at 1 x 10^-6 M relative to control. The class given is functional.
The subject of assay [9] is Brassica rapa. Nature of the assay: Growth promoting activity in Brassica rapa (Chinese cabbage) assessed as increase in root length at 1 x 10^-3 M relative to control. It counts as functional, organism-based.
Assay [10] has as its system Brassica rapa. Nature of the assay: Growth promoting activity in Brassica rapa (Chinese cabbage) assessed as increase in root length. The class given is functional, organism-based.
In assay [11] the test system is Oryza sativa. Nature of the assay: Growth promoting activity in Oryza sativa (rice) assessed as increase in shoot length at 1 x 10^-5 M relative to control. The class given is functional.
Assay [12] has as its system Oryza sativa. Nature of the assay: Growth promoting activity in Oryza sativa (rice) assessed as increase in root length at 1 x 10^-3 M relative to control. The class given is functional, organism-based.
In assay [13] the test system is Brassica rapa. The assay is described as follows: Growth promoting activity in Brassica rapa (Chinese cabbage) assessed as increase in root length at 1 x 10^-4 M relative to control. The class given is functional.

The results in this text go back to ChEMBL document CHEMBL3046610, “Synthesis and Biological Activities of Fluorinated Plant Growth Regulators, 4, 4, 4-Trifluoro-3-(3-indolyl)butyric Acids and 4, 4, 4-Trifluoro-3-(2-indolyl)butyric Acid Bearing a Methyl Group on the Indole Nucleus” (1997).

Active and inactive are the calls of the source. The calls are words filed in the database; no cut-off is given here.

In the case of `Cn1cc(C(CC(=O)O)C(F)(F)F)c2ccccc21` (racemic), the result in assay [1] was Active. Besides, the Activity in assay [2] came to 153.4%; in assay [3] it was 211.1%; in assay [4], 46%; in assay [5] it was 86.2%; in assay [7], 136.2%; in assay [8], 94.6%. Further, in assay [11], the Activity was 105.3%. For the same compound, the outcome in assay [6], in [9], in [10] and in assay [12] was inactive.
As to `Cc1ccc2c(C(CC(=O)O)C(F)(F)F)c[nH]c2c1` (racemic), the result in assay [1], in assay [6] and in [10] was Active. The Activity in assay [2] came to 311.4%; in [3], 377.5%; in assay [4] it was 31.5%; in assay [5], 95.9%; in assay [7], 172%; in assay [8], 103.3%. Besides, the Activity in [11] was 106.2%. The result in assay [9] and in assay [12] was inactive. For the same compound, the “fold change (FC)” value in assay [13] turned out to be 2.5.
Turning to `Cc1[nH]c2ccccc2c1C(CC(=O)O)C(F)(F)F` (racemic), the outcome in assay [1], in [6], in assay [9] and in [12] was inactive. The Activity was found to be 168% in assay [2]; 242% in assay [3]; 36.6% in assay [4]; 84% in assay [5]; 111.8% in assay [7]; 98.8% in assay [8]. In addition, the Activity in [11] was 103.2%.
`Cc1cccc2c(C(CC(=O)O)C(F)(F)F)c[nH]c12` (racemic): the result in assay [1], in [6] and in assay [10] was Active. For the same compound, the Activity in assay [2] was 224.4%; in [3], 277.1%; in assay [4], 36.9%; in assay [5], 83.3%; in assay [7], 126%; in assay [8], 96%. Moreover, the Activity in [11] came to 112.8%. Moreover, the result in assay [9] and in assay [12] was inactive. Moreover, the “fold change (FC)” value in [13] was 2.5.
`O=C(O)CC(c1c[nH]c2ccccc12)C(F)(F)F` (racemic): the Activity in assay [2] is given as 199.5%; in [3], 290.1%; in assay [4], 35.6%; in [5], 76.7%; in assay [7] it was 128.9%; in assay [8] it was 99.2%. Further, the Activity in [11] is 99%. The result in assay [12] was inactive.
Regarding `Cc1cccc2[nH]cc(C(CC(=O)O)C(F)(F)F)c12` (racemic), the result in assay [1], in assay [6] and in assay [10] was Active. Further, the Activity in assay [2] is on record as 274.6%; in [3] it was 357.5%; in assay [4], 33.7%; in assay [5], 86.4%; in assay [7], 172.5%; in assay [8], 103.6%. Also, in [11], the Activity was found to be 102.7%. For the same compound, the outcome in [9] and in [12] was inactive. In addition, in assay [13], the “fold change (FC)” value stood at 2.5.
Regarding `Cc1c(C(CC(=O)O)C(F)(F)F)[nH]c2ccccc12` (racemic), the outcome in [1], in assay [9] and in assay [12] was inactive. The Activity in assay [2] amounted to 433.3%; in [3], 266%; in assay [4], 38.2%; in [5], 99%; in assay [7] it was 134.6%; in [8], 98.4%. In assay [11], the Activity was 106.2%. Further, the result in assay [6] and in assay [10] was Active. Besides, the “fold change (FC)” value in [13] turned out to be 2.5.
Turning to `Cc1ccc2[nH]cc(C(CC(=O)O)C(F)(F)F)c2c1` (racemic), the result in assay [1] and in [6] was Active. Also, the Activity was found to be 331.1% in [2]; 382.4% in assay [3]; 31.9% in [4]; 90% in assay [5]; 168.5% in assay [7]; 100.5% in [8]. Further, the Activity in assay [11] was determined as 105.5%. Moreover, the outcome in assay [9] and in assay [12] was inactive.
